One molecule from US10188603B2, “Topical systems and methods for treating sexual dysfunction” (priority 2013, dated 2019) can be followed below.

Assay [1] concerns capillary circulation of the skin. Description: Laser Doppler circulation in five human subjects (Example 8). The format is in vivo. As to conditions: positive control formulation containing 0.1% methyl nicotinate. An excerpt:
This example illustrates delivery of nitric oxide formulations to five human subjects, using procedures and formulations similar to those discussed in Example 5. Each person served as their own control for the testing. A Moor Instruments Laser Doppler was used to determine circulation. […] The formulations used produce positive, almost immediate results when applied to the skin which, in these studies, was manifested by vasodilatation of the cutaneous vascular system.
For each subject, the following creams were applied: a negative control formulation (containing no NO), 0.010 gram of a 10,000 ppm NO formulation, 0.020 gram of a 10,000 ppm NO formulation, and a positive control formulation containing 0.1% methyl nicotinate. The formulations were prepared using procedures similar to those discussed in Example 1.

In assay [2] the test system is micro-capillary blood flow to skin. Description: Laser Doppler capillary blood flow in humans, 10,000 ppm NO in closed chamber (Example 5). The format is in vivo, human. As to conditions: applied to the skin at 1/10% in alcohol. An excerpt: The formulation used in these studies contained nitric oxide dispersed in a lipid matrix. […] Nitric oxide is a very rapid acting molecule, and these studies used a system that employed laser Doppler with a covered chamber. The formulation was placed into the chamber and then attached to the skin by an adhesive layer on the covering. This provided a stable measuring device as determined by multiple normal evaluations of the capillary blood flow without treatment of nitric oxide.
A known positive control, methyl nicotinate, was applied to the skin at a concentration of 1/10% in alcohol. […] The vascular dynamics are such that when the blood vessels dilate physical parameters follow Bernoulli's law. This states that as one increases the diameter of a tube containing a liquid to flow will increase but the pressure and the speed of the liquid will decrease. The laser Doppler device accurately measured these parameters.
The test product was labeled as 10,000 ppm NO (nitric oxide). The study participants had 100 mg of the test product applied in a closed Hilltop chamber on the forearm. […]
A Moor Instruments DRT4 Laser Doppler Blood Flow Monitor (Devon, England) was used in these studies. The laser Doppler technique measured blood flow in the microcapillaries of the skin that are close to the skin surface and the blood flow in underlying arterioles and venules that help to regulate skin temperature. […]

For `COC(=O)c1cccnc1` [methyl nicotinate], in assay [1], the “vasodilatation (laser Doppler)” value is recorded as “vasodilatation was observed”. Besides, the “laser Doppler response of positive control” value in assay [2] is listed as “rapid response typical of the vasodilator”.
